Data reported in PMC8588511, “Chromane Derivatives from Underground Parts of Iris tenuifolia and Their In Vitro Antimicrobial, Cytotoxicity and Antiproliferative Evaluation” (Molecules, 2021).
Like-named read-outs stand apart in the source and are kept apart here.

Tests used:
[1] = test system: Enterococcus faecalis (VRE 1528 R10); test: agar diffusion antimicrobial assay; type: cell-based; settings: for zone of inhibition at 1000 µg/mL: Enterococcus faecalis (VRE 1528 R10), 50 μL of 1 mg/mL in DMSO, 18 h, ciprofloxacin 5 µg/mL, read-out: Inhibition Zone of Test Microorganism; for antibacterial activity in words: Enterococcus faecalis VRE, agar diffusion
Method: (§1) Compounds 1, 2, 3, 5, 9, and 10 were tested for their antimicrobial activities against S. aureus (JMRC:STI 10760), B. subtilis (JMRC:STI 10880), S. aureus MRSA (JMRC: ST 33793) E. faecalis VRE (JMRC: ST 33700), E. coli (JMRC:ST 33699), P. aeruginosa (JMRC:ST 33771), P. aeruginosa (JMRC:ST 33772), M. vaccae (JMRC:STI 10670), S. salmonicolor (JMRC:ST 35974), C. albicans (JMRC:STI 25000), and P. notatum (JMRC:STI 50164)) using agar diffusion assay as previously published. Strains were obtained from the Jena Microbial Resource Collection (JMRC). The bacteria were cultivated on standard I nutrient agar in Petri dishes at 37 °C. Antifungal bioassays were conducted at 30 °C using the basidiomycetous yeast S. salmonicolor and the filamentous ascomycete P. notatum, which were cultivated on malt agar, and the ascomycetous yeast C. albicans, which was cultivated on yeast morphology agar. After inoculation of the test organisms, a disc (9 mm in diameter) was removed from the center of the Petri dish and 50 μL of the test solution (1 mg/mL in DMSO) was added to the cavity. After 18 h of incubation, the inhibiting areola were measured and documented as diameters in mm. Ciprofloxacin (5 µg/mL in deionized water) and amphotericin B (10 µg/mL in DMSO/MeOH 1:1) were used as reference substances against bacterial and fungal strains, respectively.

[2] = test system: Staphylococcus aureus (MRSA 134/94 R9); test: agar diffusion antimicrobial assay; type: cell-based; settings: 50 μL of 1 mg/mL in DMSO, 18 h, ciprofloxacin 5 µg/mL
Method: as §1

[3] = test system: Pseudomonas aeruginosa (K799/61 B9); test: agar diffusion antimicrobial assay; type: cell-based; settings: Pseudomonas aeruginosa (K799/61 B9); 50 μL of 1 mg/mL in DMSO, 18 h; ciprofloxacin 5 µg/mL
Method: as §1

[4] = test system: Pseudomonas aeruginosa (SG137 B7); test: agar diffusion antimicrobial assay; type: cell-based; settings: 50 μL of 1 mg/mL in DMSO, 18 h, ciprofloxacin 5 µg/mL
Method: as §1

[5] = test system: human chronic myeloid leukemia cells (K-562); test: antiproliferation assay (CellTiter-Blue); type: cell-based; settings: for GI50: Homo sapiens, read-out: Antiproliferative Effect, GI50 (CI 95%)
Method: (§2) In this assay, K-562 (DSM ACC 10), THP-1 (DSM ACC 16), and HeLa (DSM ACC 57) were maintained in Roswell Park Memorial Institute (RPMI) 1640 medium (Cambrex 12-167F) while HUVEC (ATCC CRL-1730) and A549 (DSM ACC 107) were cultured in Dulbecco’s Modified Eagle’s Medium (DMEM) (Cambrex 12-614F). Cells that were grown in the appropriate cell culture medium were supplemented with 10 mL/L ultraglutamine 1 (Cambrex 17-605E/U1), 550 µL/L (50 mg/mL) gentamicin sulfate (Cambrex 17-518Z), and 10% heat inactivated fetal bovine serum (GIBCO Life Technologies 10270-106) at 37 °C. The tested compounds were dissolved in DMSO, and the cells were seeded in 96-well plates at a density of 1 × 10^4 cells/well. As for the antiproliferative effect of the compounds, the cells were incubated for 72 h, and GI50 values were evaluated to be defined as the concentration causing 50% inhibition of proliferation compared to the untreated control. With regard to the cytotoxic assay, HeLa cells were pre-incubated for 48 h without the test compounds. Then, the cells were exposed with different concentrations of compounds and incubated for 72 h. After that, the adherent HeLa cells were fixed by glutaraldehyde and stained with a 0.05% solutions of methylene blue (SERVA 29198) for 15 min. CC50 was evaluated to be defined as the concentration required for the death of 50% of the cell monolayer as compared to control groups. Under our experimental conditions, the optical density measured from the CellTiter-Blue reagent and methylene blue assay is proportional to the number of viable cells. In this experiment, absorbances were measured at 570 nm against the reference wavelength of 600 nm (CellTiter-Blue assay) and at 660 nm (methylene blue assay). Doxorubicin (Adriamycin®) and imatinib (Gleevec®) were used as positive controls for HUVEC, K-562, and HeLa cells. A repeat determination has been conducted in all experiments, and four replicates were assayed. The calculations of the different values of GI50 and CC50 were performed with software Magellan version 3.00 (Tecan Trading AG, Maennedorf, Switzerland).

[6] = test system: human lung carcinoma cells (A549); test: antiproliferation assay (CellTiter-Blue); type: cell-based
Method: as §2

[7] = test system: human acute monocytic leukemia cells (THP-1); test: antiproliferation assay (CellTiter-Blue); type: cell-based
Method: as §2

[8] = test system: human umbilical vein endothelial cells (HUVEC); test: antiproliferation assay (CellTiter-Blue); type: cell-based; settings: Homo sapiens, 72 h, read-out: Antiproliferative Effect, GI50 (CI 95%)
Method: as §2

[9] = cytotoxicity assay (methylene blue); type: cell-based, human; settings: human, HeLa, 72 h, read-out: Cytotoxicity CC50 (CI 95%)
Method: as §2

[10] = test system: Bacillus subtilis (6633 B1); test: agar diffusion antimicrobial assay; type: cell-based; settings: for zone of inhibition at 1000 µg/mL: Bacillus subtilis (6633 B1), 50 μL of 1 mg/mL in DMSO, 18 h, ciprofloxacin 5 µg/mL, read-out: Inhibition Zone of Test Microorganism
Method: as §1

[11] = test system: Mycobacterium vaccae (10670 M4); test: agar diffusion antimicrobial assay; type: cell-based; settings: for antibacterial activity in words: Mycobacterium vaccae, agar diffusion, compared to ciprofloxacin; for zone of inhibition at 1000 µg/mL: Mycolicibacterium vaccae, Mycobacterium vaccae (10670 M4), 50 μL of 1 mg/mL in DMSO, 18 h, ciprofloxacin 5 µg/mL, read-out: Inhibition Zone of Test Microorganism
Method: as §1

[12] = test system: three fungi and eight bacterial strains; test: agar diffusion assay, whole panel; type: cell-based; settings: eleven microorganisms
Method: as §1

[13] = test system: HUVEC, K-562, THP-1, A549, and HeLa cell lines; test: antiproliferative and cytotoxicity assays, all applied cell lines; type: cell-based
Method: The tested compounds were dissolved in DMSO, and the cells were seeded in 96-well plates at a density of 1 × 10^4 cells/well. […] With regard to the cytotoxic assay, HeLa cells were pre-incubated for 48 h without the test compounds. Then, the cells were exposed with different concentrations of compounds and incubated for 72 h. […] Under our experimental conditions, the optical density measured from the CellTiter-Blue reagent and methylene blue assay is proportional to the number of viable cells. In this experiment, absorbances were measured at 570 nm against the reference wavelength of 600 nm (CellTiter-Blue assay) and at 660 nm (methylene blue assay). […] A repeat determination has been conducted in all experiments, and four replicates were assayed. The calculations of the different values of GI50 and CC50 were performed with software Magellan version 3.00 (Tecan Trading AG, Maennedorf, Switzerland).

[14] = Homo sapiens, A549, 72 h; read-out: Antiproliferative Effect, GI50 (CI 95%)
[15] = Homo sapiens, THP-1, 72 h; read-out: Antiproliferative Effect, GI50 (CI 95%)

GI50 ([5]; K562, K-562, 72 h) [µM]	Structure (SMILES)	zone of inhibition at 1000 µg/mL [1] [mm]	antibacterial activity in words [1]	Inhibition Zone of Test Microorganism [2]	Inhibition Zone of Test Microorganism [3]	Inhibition Zone of Test Microorganism [4]	GI50 [6, 14] [µM]	GI50 [7, 15] [µM]	GI50 [8] [µM]	CC50 at 72 h ([9]; HeLa cells (DSM ACC 57)) [µM]	antiproliferative / cytotoxic effect in words [13]	further results
48.7	O=C1CC(c2ccccc2O)Oc2cc3c(c(O)c21)OCO3 (stereo not drawn) [Compound 4, 5,2′-Dihydroxy-6,7-methylenedioxyflavanone]						81	16	73.3	> 100		
56	COc1cc(O)c2c(c1)OC(c1cccc(O)c1O)CC2=O (stereo not drawn) [Compound 6, 5,2′,3′-Trihydroxy-7-methoxyflavanone]						70.9	16.9	68.2	> 100		
97.6	COc1cc(O)c2c(c1)OC(c1cccc(O)c1OC)C(O)C2=O (stereo not drawn) [Compound 7, 3,5,3′-Trihydroxy-7,2′-dimethoxyflavanone]						> 100	> 100	> 100	> 100	reduced or no inhibitory effects	
> 100	COc1ccccc1-c1coc2cc(O)c(OC)c(O)c2c1=O [Compound 8, 5,7-Dihydroxy-6,2′-dimethoxyisoflavone]						> 100	> 100	> 100	> 100	reduced or no inhibitory effects	
	CC[C@H](CC[C@@H](C)[C@H]1CC[C@H]2[C@@H]3CC=C4C[C@@H](O)CC[C@]4(C)[C@H]3CC[C@]12C)C(C)C [Compound 12, β-Sitosterol]								> 100		neither an antiproliferative effect nor a cytotoxicity	GI50 ([5]; K562, 72 h): > 100 µM; GI50 ([6]; Homo sapiens, A549, 72 h, read-out: Antiproliferative Effect, GI50 (CI 95%)): > 100 µM; GI50 ([7]; Homo sapiens, THP-1, 72 h, read-out: Antiproliferative Effect, GI50 (CI 95%)): > 100 µM; CC50 at 72 h [9]: > 100 µM
0.13	COc1cccc2c1C(=O)c1c(O)c3c(c(O)c1C2=O)C[C@@](O)(C(=O)CO)C[C@@H]3O[C@H]1C[C@H](N)[C@H](O)[C@H](C)O1 [Doxorubicin, reference compound]								0.13	0.48		
0.2	Cc1ccc(NC(=O)c2ccc(CN3CCN(C)CC3)cc2)cc1Nc1nccc(-c2cccnc2)n1 [Imatinib, imatinib, reference compound]								22.1	78.6		

Structure (SMILES)	GI50 ([5]; K562, K-562, 72 h) [µM]	zone of inhibition at 1000 µg/mL [1] [mm]	antibacterial activity in words [1]	Inhibition Zone of Test Microorganism [2]	Inhibition Zone of Test Microorganism [3]	Inhibition Zone of Test Microorganism [4]	GI50 [6, 14] [µM]	GI50 [7, 15] [µM]	GI50 [8] [µM]	CC50 at 72 h ([9]; HeLa cells (DSM ACC 57)) [µM]	antiproliferative / cytotoxic effect in words [13]	further results
O=C1C=CCCC(O)C2CC(=O)c3c(O)cc(cc3O2)OC2OC(CO1)C(O)C(O)C2O (stereo not drawn) [Compound 1, Moniristenulide]	> 100	13	selective activity	-	-	-	> 100	> 100	> 100	> 100		
COc1c2c(cc3c1C1CC(O3)c3ccccc3O1)OCO2 (stereo not drawn) [Compound 2, 5-Methoxy-6,7-methylenedioxy-4-O-2′-cycloflavan]	31.5	14	demonstrated activity	-	-	-	> 100	29.2	35.2	42.6		zone of inhibition at 1000 µg/mL [10]: 12 mm; antibacterial activity in words ([10]; Bacillus subtilis, agar diffusion, compared to ciprofloxacin): demonstrated activity; antibacterial activity in words [11]: demonstrated activity; zone of inhibition at 1000 µg/mL [11]: 17 mm
O=C1C[C@@H](c2cccc(O)c2O)Oc2cc(O)cc(O)c21 [Compound 3, (2S)-5,7,2′,3′-Tetrahydroxyflavanone]	32.3	17	highest antibacterial activity	-	-	-	> 100	> 100	> 100	> 100		zone of inhibition at 1000 µg/mL [10]: 12 mm; antibacterial activity in words [11]: highest antibacterial activity; zone of inhibition at 1000 µg/mL [11]: 23 mm; antiproliferative activity in words ([5]; K-562): selective antiproliferative inhibition effect; antimicrobial activity over the panel in words [12]: most active
COc1cc2occ(-c3ccccc3OC3OC(CO)C(O)C(O)C3O)c(=O)c2c(O)c1OC [Compound 9, 5-Hydroxy-6,7-dimethoxyisoflavone-2′-O-β-D-glucopyranoside]	> 100	13	selective activity	-	-	-	> 100	> 100	> 100	> 100	completely not effective	
